Source: patent US12285426B2, “Combination serotonin specific reuptake inhibitor and serotonin 1A receptor partial agonist for reducing L-DOPA-induced dyskinesia” (The Research Foundation for The State University of new York, priority 2018, dated 2025)

Columns and labels:
DRN 5-HT neurons = test: Example 3: in vivo single-unit recording of DRN 5-HT neurons; design: species or system rat; conditions: 8-OH-DPAT 1 μg/kg i.v.; WAY-100635 100 μg/kg i.v.
Source text: Burr holes (˜1 mm in diameter) were drilled in the skull overlying the DRN of non-lesioned rats. Prior to experimentation all animals were anesthetized with urethane (1.5 g/kgi.p.) and placed in a stereotaxic apparatus. Bipolar stimulating/recording electrodes were implanted in the frontal cortex and DRN on the right side using a micromanipulator (coordinates from Bregma: AP: 3.2 mm; ML: 0.8 mm lateral; DV: 4.4 mm ventral (frontal cortex) or AP: 7.8 mm; ML 3.1 mm; DV: 7.5 mm with the manipulator angled 30 degrees toward Bregma) as previously described [Chakroborty 2017].
Electrophysiology: Recording microelectrodes were manufactured from 2.0 mm OD borosilicate glass capillary tubing and filled with sodium chloride (2M) solution. […] Temperature was monitored using a rectal probe and maintained at 37 C.° using a heating pad (VI-20F, Fintronics Inc., Orange, CT). […] Once isolated, recordings consisted of basal (pre-drug), saline vehicle, and drug-treatment-(see below) induced changes in spike activity recorded in a series of 3 min duration epochs.
All compounds and physiological 0.9% saline were prepared daily and administered intravenously (i.v.) through the lateral tail vein to enable rapid examination of potential acute effects of vehicle or drug on DRN neuronal activity. […] DRN 5-HT neuron activity was recorded prior to and immediately following drug administration as described above.

[1] = target: T1, 5-HT1A receptor expressed in SF9 cells (Homo sapiens, UniProt P08908); conditions: cited from earlier work
T1 construct: expressed in transfected cells; host or cells: SF9 cells
T1 sequence (P08908 1-422): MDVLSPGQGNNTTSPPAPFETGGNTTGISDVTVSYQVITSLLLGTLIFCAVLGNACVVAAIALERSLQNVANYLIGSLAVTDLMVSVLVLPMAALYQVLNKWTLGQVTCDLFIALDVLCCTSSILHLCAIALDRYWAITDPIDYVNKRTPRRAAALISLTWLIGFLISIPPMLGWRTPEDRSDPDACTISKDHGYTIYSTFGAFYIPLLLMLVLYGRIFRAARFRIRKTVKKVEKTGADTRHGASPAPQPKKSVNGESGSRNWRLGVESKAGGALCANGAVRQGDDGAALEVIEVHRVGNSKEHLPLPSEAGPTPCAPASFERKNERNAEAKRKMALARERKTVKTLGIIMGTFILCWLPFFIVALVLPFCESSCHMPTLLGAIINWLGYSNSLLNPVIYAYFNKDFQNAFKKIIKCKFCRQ

[2] = test system: 6-OHDA-lesioned rats, L-DOPA-induced dyskinesia; test: Experiment 1: AIMs, established LID in L-DOPA-primed hemi-parkinsonian rats; type: in vivo, rat; conditions: LD 6 mg/kg s.c. vs L-DOPA vehicle
[3] = test system: 6-OHDA-lesioned rats, forelimb akinesia; test: Experiment 1: forepaw adjusting steps (FAS); type: in vivo, rat; conditions: LD 6 mg/kg alone or with VZD 10/20 mg/kg
Source text: Conti et al., 2014). […] Forepaw adjusting steps (FAS): The FAS test is a measure of forelimb akinesia performed according to previous protocols (Bishop et al., 2012; Chang et al., 1999). Data are presented as mean percent intact stepping where the sum of the total steps with the lesioned forepaw was divided by the total steps with the unlesioned forepaw multiplied by 100. Lower percent intact scores indicate greater forelimb akinesia. Prior to baseline, rats received 2 acclimation periods. On-treatment FAS was performed 60 min post-L-DOPA.

[4] = test system: striatum and DRN monoamines and metabolites; test: Experiment 1: HPLC of striatal and dorsal raphe tissue monoamines; type: in vivo, rat
Method: Rats (n=30) were rendered hemi-parkinsonian with unilateral 6-OHDA lesions of the left MFB. Three-weeks post-lesion, animals were divided into 2 equally disabled groups, measured by forepaw adjusting steps (FAS, see below). One group (n=8) began receiving 14 days of daily vehicle (0.9% NaCl+0.1% ascorbic acid) and the other (n=22) received L-DOPA methyl ester (6 mg/kg, s.c.; Sigma)+DL-serine 2-(2,3,4-trihydroxybenzyl) hydrazine hydrochloride (benserazide; 15 mg/kg, s.c.; Sigma), hereafter L-DOPA, dissolved in vehicle at a volume of 1 mL/kg. […] Thereafter, L-DOPA-treated animals with Axial, Limb, and Orolingual (ALO) AIMs (see description below, FIG. 1A)<30 were excluded from the study and the remaining L-DOPA-treated animals were divided into 3 equally dyskinetic groups. […] Daily injections continued over 23 days, with behavior assayed on Days 15, 22, 29, and 36. On Day 37, animals were killed 60 min post-treatment. Left and right dorsal striata and DRN were dissected and flash frozen for HPLC analyses.
High-performance liquid chromatography (HPLC): HPLC, a method for semi-automated catecholamine analysis with coulometric detection, was performed according to prior protocols (Bishop et al., 2009) to determine the tissue levels of monoamines, their metabolites, and monoamine turnover in the striatum and DRN. The limit of detection for DOPAC, DA, 5-hydroxyindoleacetic acid (5-HIAA) and 5-HT was 10^−10 M. Final oxidation current values were plotted on a standard curve from 10^−6 M to 10^−9 M and expressed as pg of monoamine or metabolite per mg of tissue unless otherwise specified.
On the final treatment day, animals were sacrificed 60 min post-LD treatment and left and right striata and dorsal raphe nucleus (DRN) were collected for high performance liquid chromatography (HPLC) analysis. Values (means±standard mean error) are expressed as picograms of monoamine or metabolite per milligram wet tissue weight. Turnover estimates were determined by dividing a subject's metabolite value by its corresponding monoamine.

[5] = test system: 6-OHDA-lesioned rats, forelimb akinesia; test: Experiment 2: forepaw adjusting steps (FAS); type: in vivo, rat; conditions: LD 6 mg/kg alone or with VZD
Source text: Forepaw adjusting steps (FAS): The FAS test is a measure of forelimb akinesia performed according to previous protocols (Bishop et al., 2012; Chang et al., 1999). Data are presented as mean percent intact stepping where the sum of the total steps with the lesioned forepaw was divided by the total steps with the unlesioned forepaw multiplied by 100. Lower percent intact scores indicate greater forelimb akinesia. Prior to baseline, rats received 2 acclimation periods. On-treatment FAS was performed 60 min post-L-DOPA.

[6] = test system: lesion-induced motor deficits; test: FIG. 23D: % intact stepping; type: in vivo; conditions: L-DOPA alone or with AMA 40 mg/kg and/or VZD 2.5 mg/kg
[7] = in vivo; cited from earlier work
[8] = test system: striatal c-Fos, PPD, PPE, PPT, 5-HT1AR mRNA; test: Experiment 2: real-time RT-PCR of striatal gene expression
[9] = test system: 6-OHDA-lesioned rats, L-DOPA-induced dyskinesias; test: Example 2: LIDs scoring in unilateral 6-OHDA-lesioned rats; type: in vivo, rat; conditions: vilazodone 10 mg/kg or escitalopram 12.5 mg/kg + L-DOPA 5 mg/kg, 2 weeks
Method: 6-OHDA-induced dopaminergic lesions: Adult male Sprague-Dawley rats were randomly assigned to groups receiving either a 6-OHDA or sham lesion. […] [[…] 2019]. […] Rats were treated for 5 consecutive days/week (Mon-Fri), for 2 weeks. […] All rats were evaluated three times per week for the presence of L-DOPA-induced dyskinesias (LIDs) (Wed-Fri) and once for the stepping test (Tue). […] Scores were given over 1 min epochs and classified as axial, limb, orolingual and locomotive. […] The severity of each LID was scored using a standard scale. Each dyskinetic behavior was given an intensity and frequency score, which were then multiplied. The average sum of the products of each LID was determined in each animal.

[10] = test system: L-DOPA-primed 6-OHDA-lesioned rats; 5-HT1AR; conditions: VZD 10 mg/kg, WAY 0.5 mg/kg, LD 6 mg/kg s.c.
[11] = test system: 6-OHDA-lesioned rats, forelimb akinesia; test: Example 2: stepping test; type: in vivo, rat; conditions: 60 minutes post L-DOPA
Method: 6-OHDA-induced dopaminergic lesions: Adult male Sprague-Dawley rats were randomly assigned to groups receiving either a 6-OHDA or sham lesion. All rats received desipramine (10 mg/kg i.p.) 30 min prior to surgery to prevent the lesioning of norepinephrine neurons by 6-OHDA. A single injection of 6-OHDA (8 μg of 6-OHDA free base in 4 p of 0.1% ascorbic acid) was delivered into the right medial forebrain bundle (coordinates taken from bregma: −4.3 mm AP, 1.6 mm ML, −8.3 mm DV). The same experimental treatment was performed for the sham-operated rats using vehicle (4 μl of 0.1% ascorbic acid). A standard stepping test was used to evaluate the effectiveness of the 6-OHDA lesion.
Rats were treated for 5 consecutive days/week (Mon-Fri), for 2 weeks. On the second day of each week, stepping tests were performed prior to drug administration, and 60 minutes post L-DOPA treatment.

[12] = test system: L-DOPA-primed 6-OHDA-lesioned rats; 5-HT1BR; test: Experiment 3: AIMs with 5-HT1BR antagonist NAS-181; type: in vivo, rat; conditions: VZD 10 mg/kg, NAS-181 3.0 mg/kg, LD 6 mg/kg s.c.
Method: All 6-OHDA-lesioned rats (n=17) were tested on the FAS prior to treatment regimens to establish baseline motor performance. Three-weeks post-surgery, all rats were primed with L-DOPA (6 mg/kg, s.c.) for 14 days.
Beginning 10 min post-treatment, a trained and blinded observer assigned a severity score (0-4) to each of the ALO AIMs based on 1 min ratings every 10 min for 3 h: 0, not present; 1, present from 1-29 s; 2, present 30-59s; 3, present all 60 s, but interruptible by a cylinder tap; 4, present 60 s and not interruptible by a cylinder tap.

[13] = Dorsal Raphe Nucleus, VZD(0)+LD(6) mg/kg s.c.

Which “spontaneous firing of DRN 5-HT neuron” value (DRN 5-HT neurons) does the source give for Br.CCCN(CCC)C1CCc2cccc(O)c2C1 (stereo not drawn) [8-OH-DPAT, 8-hydroxy-2-(dipropylamino) tetralin hydrobromide] here?
The value was “suppressed the spontaneous firing of a DRN neuron”.

And the “increase of [35S]GTPyS binding compared to vehicle” value [1]?
The value was “eightfold”.

For N[C@@H](Cc1ccc(O)c(O)c1)C(=O)O [L-DOPA, L-3,4-dihydroxyphenylalanine], which “LID during 14 days of priming” value [2] is on record?
Its value is “significantly greater LID”.

And the “FAS motor performance vs baseline” value [3]?
The value was “significant improvements on motor performance over baseline”.

What about the 5-HIAA [4, 13] of the same molecule?
The 5-HIAA was 2778 pg/mg wet tissue weight.

What about the 5-HT [4, 13] of the same molecule?
Its 5-HT is 5457 pg/mg wet tissue weight.

What about the “5-HT Turnover” value [4, 13] of the same molecule?
The value was 0.57.

What about the DA [4, 13] of the same molecule?
The DA was 112 pg/mg wet tissue weight.

What about the “DA Turnover” value [4, 13] of the same molecule?
Its value is 10.3.

What about the DOPAC [4, 13] of the same molecule?
Its DOPAC is 1114 pg/mg wet tissue weight.

What about the “DRN DA, DOPAC and DA Turnover” value ([4]; LD 6 mg/kg) of the same molecule?
The value was “significantly increased DRN levels of DA, DOPAC and DA Turnover”.

What about the FAS vs baseline [5] of the same molecule?
The FAS vs baseline was “significant increases in motor ability on each test day”.

And the “% intact stepping” value [6]?
Its value is “reversed lesion-induced motor deficits”.

What about the “fraction crossing the blood-brain barrier” value [7] of the same molecule?
Its value is 5-10%.

What about the “striatal PPE mRNA” value ([8]; lesioned striata, LD 6 mg/kg, VZD 20 mg/kg, day 23) of the same molecule?
Its value is “significantly increased PPE in the lesioned striata”.

What about the “striatal PPD mRNA” value ([8]; lesioned striata, LD 6 mg/kg, VZD 10/20 mg/kg, day 23) of the same molecule?
The value was “significantly increased PPD in the lesioned striata”.

What about the “striatal c-Fos mRNA” value ([8]; lesioned striata, LD 6 mg/kg, VZD 10 or 20 mg/kg, day 23) of the same molecule?
The value was “potentiated c-Fos in lesioned striata”.

And the “striatal PPT mRNA” value ([8]; rat, in vivo)?
The value was “did not increase striatal PPT”.

Which LIDs severity [9] does the source give for COc1ccccc1N1CCN(CCN(C(=O)C2CCCCC2)c2ccccn2)CC1.O=C(O)/C=C\C(=O)O [WAY100635, N-[2-[4(2-Methoxyphenyl)-1-piperazinyl]ethyl]-N-2-pyridinylcyclohexanecarboxamide maleate salt] here?
Its LIDs severity is “reverses the beneficial effects of vilazodone on LIDs”.

And the “spontaneous firing of DRN 5-HT neuron” value (DRN 5-HT neurons)?
Its value is “return to baseline firing”.

And the “summed ALO AIMs” value [10]?
Its value is “partially reversed the anti-dyskinetic efficacy of Vilazodone”.

Which LIDs severity [9] does the source give for CN(C)CCC[C@@]1(c2ccc(F)cc2)OCc2cc(C#N)ccc21 [Escitalopram] here?
Its LIDs severity is “significantly reduced LIDs severity”.

And the “forelimb akinesia / L-DOPA therapeutic (prokinetic) efficacy” value [11]?
The value was “affected L-DOPA therapeutic efficacy”.

With C1=C(CN2CCOCC2)COc2c1cccc2OC[C@H]1CNCCO1.CS(=O)(=O)O [NAS-181, (R)-(+)-2-(3-morpholinomethyl-2H-chromen-8-yl) oxymethyl-morpholine methane-sulfonate] as the molecule, how does the “ALO AIMs” value [12] read?
Its value is “did not significantly alter AIMs or their reduction by Vilazodone”.
